# Assay results taken from the Kinase Knowledgebase extract (Sharma et al. 2016).
# Biological target: MAPK14 (human) (UniProt Q16539)
# Experiment: Enzyme Assay
# Sequence of MAPK14 (human) (Q16539 whole entry, looked up): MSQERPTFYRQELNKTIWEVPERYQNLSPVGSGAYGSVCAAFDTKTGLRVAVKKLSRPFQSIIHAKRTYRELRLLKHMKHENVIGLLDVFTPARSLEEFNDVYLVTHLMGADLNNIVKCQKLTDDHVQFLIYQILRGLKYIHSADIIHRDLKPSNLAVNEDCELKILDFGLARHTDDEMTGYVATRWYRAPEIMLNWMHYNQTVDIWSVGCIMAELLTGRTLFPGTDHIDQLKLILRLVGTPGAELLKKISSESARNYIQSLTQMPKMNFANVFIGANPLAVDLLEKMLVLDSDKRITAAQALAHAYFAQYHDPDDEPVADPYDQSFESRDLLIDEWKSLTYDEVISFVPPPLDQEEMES
row,IC50,Compound
1,< 10 nM,CC(C)(C)c1cc(NC(=O)N[C@H]2CC[C@@H](Oc3ccc4nnc(N5CCCCC5)n4c3)c3ccccc32)n(-c2cccc(COCCO)c2)n1
2,< 10 nM,Cc1ccc(-n2nc(C(C)(C)C)cc2NC(=O)N[C@H]2CC[C@@H](Oc3ccc4nnc(CC5CCN(CC(F)F)CC5)n4c3)c3ccccc32)cc1
3,< 10 nM,CCOC(=O)c1cccc(-n2nc(C(C)(C)C)cc2NC(=O)N[C@H]2CC[C@@H](Oc3ccc4nnc([C@@H]5CCCN5C)n4c3)c3ccccc32)c1
4,< 10 nM,Cc1ccc(-n2nc(C(C)(C)C)cc2NC(=O)N[C@H]2CC[C@@H](Oc3ccc4nnc(N5CCC(C(C)(C)O)CC5)n4c3)c3ccccc32)cc1
5,< 10 nM,C[C@H]1CCCCN1c1nnc2ccc(O[C@@H]3CC[C@H](NC(=O)Nc4cc(C(C)(C)C)nn4-c4cccc(CCN5CCCN(C)CC5)c4)c4ccccc43)cn12
6,< 10 nM,Cc1ccc(-n2nc(C(C)(C)C)cc2NC(=O)N[C@H]2CC[C@@H](Oc3ccc4nnc(C5CCNCC5)n4c3)c3ccccc32)cc1
7,< 10 nM,C[C@H]1CCCCN1c1nnc2ccc(O[C@@H]3CC[C@H](NC(=O)Nc4cc(C(C)(C)C)nn4-c4cccc(OCCN5CCN(C)CC5)c4)c4ccccc43)cn12
8,< 10 nM,Cc1ccc(-n2nc(C(C)(C)C)cc2NC(=O)N[C@H]2CC[C@@H](Oc3ccc4nnc(N5CCC[C@@H](CO)C5)n4c3)c3ccccc32)cc1
9,< 10 nM,Cc1ccc(-n2nc(C(C)(C)C)cc2NC(=O)N[C@H]2CC[C@@H](Oc3ccc4nnc([C@]5(C)CCCN5C)n4c3)c3ccccc32)cc1
10,< 10 nM,Cc1ccc(-n2nc(C(C)(C)CO)cc2NC(=O)N[C@H]2CC[C@@H](Oc3ccc4nnc(N5CCCCC5)n4c3)c3ccccc32)cc1
11,< 10 nM,CC(C)(C)c1cc(NC(=O)N[C@H]2CC[C@@H](Oc3ccc4nnc(N5CCCCC5)n4c3)c3ccccc32)n(-c2cccc(CO)c2)n1
12,< 10 nM,C[C@@H]1CCC[C@H](C)N1c1nnc2ccc(O[C@@H]3CC[C@H](NC(=O)Nc4cc(C(C)(C)C)nn4-c4cnn(CCN(C)C)c4)c4ccccc43)cn12
13,< 10 nM,CN1CCC[C@H]1c1nnc2ccc(O[C@@H]3CC[C@H](NC(=O)Nc4cc(C(C)(C)C)nn4-c4ccc(O)cc4)c4ccccc43)cn12
14,< 10 nM,Cc1ccc(-n2nc(C(C)(C)C)cc2NC(=O)N[C@H]2CC[C@@H](Oc3ccc4nnc(N5CCC[C@@H](O)C5)n4c3)c3ccccc32)cc1
15,< 10 nM,Cc1ccc(-n2nc(C(C)(C)C)cc2NC(=O)N[C@H]2CC[C@@H](Oc3ccc4nnc([C@@H]5CCN(C)C5)n4c3)c3ccccc32)cc1
16,< 10 nM,CN1CCC[C@H]1c1nnc2ccc(O[C@@H]3CC[C@H](NC(=O)Nc4cc(C(C)(C)C)nn4-c4cccc(CO)c4)c4ccccc43)cn12
17,< 10 nM,COC1CCN(CCOc2cccc(-n3nc(C(C)(C)C)cc3NC(=O)N[C@H]3CC[C@@H](Oc4ccc5nnc(N6CCCC[C@@H]6C)n5c4)c4ccccc43)c2)CC1
18,< 10 nM,CC(C)(C)c1cc(NC(=O)N[C@H]2CC[C@@H](Oc3ccc4nnc(N5CCCCC5)n4c3)c3ccccc32)n(-c2cnn(CCN3CCOCC3)c2)n1
19,< 10 nM,CC(C)(C)c1cc(NC(=O)N[C@H]2CC[C@@H](Oc3ccc4nnc(N5CCCCC5)n4c3)c3ccccc32)n(-c2cccc(SCCO)c2)n1
20,< 10 nM,CN1CCCC[C@H]1c1nnc2ccc(O[C@@H]3CC[C@H](NC(=O)Nc4cc(C(C)(C)C)nn4CCO)c4ccccc43)cn12
21,< 10 nM,CN(C)CCOc1cccc(-n2nc(C(C)(C)C)cc2NC(=O)N[C@H]2CC[C@@H](Oc3ccc4nnc(N5CCCCC5)n4c3)c3ccccc32)c1
22,10 to 100 nM,Cc1ccc(-n2nc(C(C)(C)C)cc2NC(=O)N[C@H]2CC[C@@H](Oc3ccc4nnc(-c5ccc(CN6CCOCC6)nc5)n4c3)c3ccccc32)cc1

row,IC50,Compound
1,< 10 nM,C[C@H]1CCCCN1c1nnc2ccc(O[C@@H]3CC[C@H](NC(=O)Nc4cc(C(C)(C)C)nn4-c4ccc(CN5CCN(C)CC5)cc4)c4ccccc43)cn12
2,< 10 nM,C[C@H]1CCCCN1c1nnc2ccc(O[C@@H]3CC[C@H](NC(=O)Nc4cc(C(C)(C)C)nn4-c4cccc(OCCN5C6CCC5COC6)c4)c4ccccc43)cn12
3,< 10 nM,Cc1ccc(-n2nc(C(C)(C)C)cc2NC(=O)N[C@H]2CC[C@@H](Oc3ccc4nnc(N5CCC(CO)CC5)n4c3)c3ccccc32)cc1
4,< 10 nM,Cc1ccc(-n2nc(C(C)(C)C)cc2NC(=O)N[C@H]2CC[C@@H](Oc3ccc4nnc(CCN5CCCC5)n4c3)c3ccccc32)cc1
5,< 10 nM,Cc1ccc(-n2nc(C(C)(C)C)cc2NC(=O)N[C@H]2CC[C@@H](Oc3ccc4nnc(N5CC[C@H](O)C5)n4c3)c3ccccc32)cc1
6,< 10 nM,CC(C)(C)c1cc(NC(=O)N[C@H]2CC[C@@H](Oc3ccc4nnc(N5CCCCC5)n4c3)c3ccccc32)n(-c2cccc(CN3CCC(O)CC3)c2)n1
7,< 10 nM,C[C@H]1CCCCN1c1nnc2ccc(O[C@@H]3CC[C@H](NC(=O)Nc4cc(C(C)(C)C)nn4-c4cccc(CCN5CCCC5)c4)c4ccccc43)cn12
8,< 10 nM,Cc1ccc(-n2nc(C(C)(C)C)cc2NC(=O)N[C@H]2CC[C@@H](Oc3ccc4cnn(CCO)c4c3)c3ccccc32)cc1
9,< 10 nM,C[C@H]1COCCN1c1nnc2ccc(O[C@@H]3CC[C@H](NC(=O)Nc4cc(C(C)(C)C)nn4CCO)c4ccccc43)cn12
10,< 10 nM,C[C@@H]1CCC[C@H](C)N1c1nnc2ccc(O[C@@H]3CC[C@H](NC(=O)Nc4cc(C(C)(C)C)nn4CCN4CCOCC4)c4ccccc43)cn12
11,< 10 nM,C[C@@H]1CCC[C@H](C)N1c1nnc2ccc(O[C@@H]3CC[C@H](NC(=O)Nc4cc(F)cc(N5CCOCC5)c4)c4ccccc43)cn12
12,< 10 nM,CN1CCC[C@H]1c1nnc2ccc(O[C@@H]3CC[C@H](NC(=O)Nc4cc(C(C)(C)C)nn4-c4ccc(CO)cc4)c4ccccc43)cn12
13,< 10 nM,C[C@H]1CCCCN1c1nnc2ccc(O[C@@H]3CC[C@H](NC(=O)Nc4cc(C(C)(C)C)nn4-c4cccc(CCN5CCOCC5)c4)c4ccccc43)cn12
14,< 10 nM,Cc1ccc(-n2nc(C(C)(C)C)cc2NC(=O)N[C@H]2CC[C@@H](Oc3ccc4nnc(NC(C)C)n4c3)c3ccccc32)cc1
15,< 10 nM,CN1CCC[C@H]1c1nnc2ccc(O[C@@H]3CC[C@H](NC(=O)Nc4cc(C(C)(C)C)nn4-c4cccc(SCCO)c4)c4ccccc43)cn12
16,< 10 nM,C[C@H]1CCCCN1c1nnc2ccc(O[C@@H]3CC[C@H](NC(=O)Nc4cc(C(C)(C)C)nn4-c4cccc(OCCN5CCCCC5)c4)c4ccccc43)cn12
17,< 10 nM,Cc1ccc(-n2nc(C(C)(C)C)cc2NC(=O)N[C@H]2CC[C@@H](Oc3ccc4nnc([C@@H](C)N5CCOCC5)n4c3)c3ccccc32)cc1.Cc1ccc(-n2nc(C(C)(C)C)cc2NC(=O)N[C@H]2CC[C@@H](Oc3ccc4nnc([C@H](C)N5CCOCC5)n4c3)c3ccccc32)cc1
18,< 10 nM,CCN(C)Cc1ccc(-n2nc(C(C)(C)C)cc2NC(=O)N[C@H]2CC[C@@H](Oc3ccc4nnc(N5CCCC[C@@H]5C)n4c3)c3ccccc32)cc1
19,< 10 nM,C[C@H]1CCCCN1c1nnc2ccc(O[C@@H]3CC[C@H](NC(=O)Nc4cc(C(C)(C)C)nn4-c4ccc(CN5CCC(F)CC5)cc4)c4ccccc43)cn12
20,< 10 nM,CN(C)CCOc1cccc(-n2nc(C(C)(C)C)cc2NC(=O)N[C@H]2CC[C@@H](Oc3ccc4nnc(N5CCCCC56CC6)n4c3)c3ccccc32)c1
21,< 10 nM,Cc1ccc(-n2nc(C(C)(C)C)cc2NC(=O)N[C@H]2CC[C@@H](Oc3ccc4nnc(-c5ccccc5CN5CCOCC5)n4c3)c3ccccc32)cc1
22,< 10 nM,Cc1ccc(-n2nc(C(C)(C)C)cc2NC(=O)N[C@H]2CC[C@@H](Oc3ccc4nnc(C5(N(C)C)CCCC5)n4c3)c3ccccc32)cc1
